Laboratory results published in a melting point compilation (Tetko et al.; mined from patent text by program, amines drawn as free bases though some values may be those of a salt).

| melting point [°C] | Structure (SMILES) |
| --- | --- |
| 189 to 192 | COc1cc(C(=O)c2ccc([N+](=O)[O-])cc2)c(CC(=O)O)cc1Br |
| 131 to 132 | CC(C)(C)C(=O)c1ccc(C(=O)NC(=O)c2ccc(C(=O)C(C)(C)C)cc2)cc1 |
| 137 to 138 | COCCCN1C(=O)CC(=O)Nc2ccccc21 |
| 104 to 105 | OCc1cnoc1-c1cc(Cl)cc(Cl)c1 |
| 194 | CC(C)c1cc(C#N)cc(C(=O)Nc2ccc(F)cn2)n1 |
| 194 to 195 | CCON1CCC(C#N)(NC(=O)Cc2c(C)cc(C)cc2C)CC1 |
| > 250 | Nc1nc2ccc(S(=O)(=O)n3c(CCCC(=O)O)cc4nc(Cl)ccc43)cc2s1 |
| 210 to 212 | CC(=O)OCc1nc2nccnc2c(=O)[nH]1 |
| 87 to 90 | COc1ccc2c(c1)c(C)c(-c1ccc(O)cc1)n2Cc1ccc(OCCN2CCCCC2)cc1 |
| 84 to 85 | Cc1cc(Oc2cccc(C(F)(F)F)c2)nn1C(=O)Nc1ccc(F)cc1F |
| 97 to 98 | CCCC(CNC(=O)Cc1c(Cl)cncc1Cl)c1cccc(OC)c1 (stereo unspecified) |
| 146 to 147 | CC(=O)Nc1cc(C(F)(F)F)ccc1S(=O)(=O)CC#N |
| 36 to 38 | COc1cnc(C)c(C)c1OC |
| 170 | Cc1cccc2c(=O)[nH]c(=O)[nH]c12 |
| 101 to 102 | CC(C)(O)CCCCc1ccc2ccccc2c1O |
| 177 to 179 | CC(=O)OCc1cc2c3ccccc3[nH]c(=O)n2n1 |
| 273 to 274 | Cc1ccc(C(=O)O)c(Nc2ccc3cn[nH]c3c2)n1 |
| 146 to 147 | Cn1cc(-c2ccc(F)cc2)c(C(=O)O)n1 |
| 202 to 203 | O=C(N[C@H](Cc1ccc(C(F)(F)F)cc1)[C@@H](O)c1ccc(F)cc1)c1ccc(CO)c2ccccc12 (racemic) |
| 213 | O=C(N[C@H]1CC[C@H](CCN2CCC(c3cccc4c3CCO4)CC2)CC1)c1ccc(F)cc1 |
| 202 | COc1ccc2c(c1)c(CC(O)(P(=O)(O)O)P(=O)(O)O)c(C)n2C(=O)c1ccc(Cl)cc1 |
| 245 to 247 | O=C1CCC(c2ccc(N=Cc3ccc(C(F)(F)F)cc3)cc2)=NN1 |
| 169 to 171 | Fc1ccc(C(=C2SCCCS2)c2ccc(F)cc2)cc1 |

| melting point [°C] | Structure (SMILES) |
| --- | --- |
| 91 to 93 | CC(C)n1c(=O)n(C)c(=O)c2cc(Cc3ccccc3)sc21 |
| 279 to 282 | O=C(O)C=Cc1ccc(-n2ccccc2=O)cc1 |
| 136 to 138 | CS(=O)(=O)c1ccc(Oc2cc(OC3CCOCC3)c3[nH]c(C4=NCC(CC(N)=O)S4)cc3c2)cn1 (stereo unspecified) |
| 142 to 145 | Cc1c(-c2ccccc2)oc2c(CS(=O)CCCl)cccc2c1=O (stereo unspecified) |
| 55 to 58 | COC(=O)C1CC2=C(CO1)C(=O)C=CC2=O (stereo unspecified) |
| 240 | CCNC(=O)CCCC1CCN(Cc2cnc3cc(NC(=O)c4ccc(-c5ccc(F)cc5)cc4)c(C)cc3c2)CC1 |
| 129 to 133 | CC(C)c1cc(C=Cc2ccccc2O)on1 |
| 180 to 182 | COc1cc(NC(=O)c2c(Cl)cccc2Cl)c2ncccc2c1 |
| 31 to 32.5 | CCCCCOc1ccc(C=O)cc1OCCCCC |
| 137 to 142 | COc1ccc(S(=O)(=O)Nc2ccccc2/C=C/c2ccccn2)cc1 |
| 104 to 109 | CCOC(=O)c1ccc(C(C)(C)C(N)=O)cc1 |
| 204 to 206 | CC1(C)CC(=O)c2c(NCc3ccco3)sc(-c3cc[nH]n3)c2C1 |
| 217 to 220 | O=C(O)c1cn(C2CC2)c2c(Cl)c(N3CC4CCCC3CN4)c(F)cc2c1=O (stereo unspecified) |
| 135 to 137 | COc1ccc(-c2nnc(OC)nc2-c2ccc(OC)cc2)cc1 |
| 100 | CC(C)c1ccc(S(=O)(=O)n2c(CBr)cc3cc(C(F)(F)F)ccc32)cc1 |
| 75 to 77 | Cc1ccc(-c2cc(Cl)c3ccccc3n2)cc1 |
| 177 to 179 | CCc1ccc2nc(Cl)nc(Nc3ccccc3C)c2c1 |
| 189 to 190 | COc1ccc(N2CCN(c3c(C)c(C)c4c(c3C)C(O)(c3ccc5ccccc5c3)C(C)(C)O4)CC2)cc1 (stereo unspecified) |
| 113 to 115 | CC(C)(C)NC(=O)[C@@H]1CC(Cl)CN1C(=O)C(O)[C@H](Cc1ccccc1)NC(=O)[C@H](CC(N)=O)NC(=O)COc1ccc(NC(=O)OCc2ccccc2)cc1 (stereo partly specified) |
| 131 to 134 | COc1cc(-c2cc(Br)cs2)cc2oc(=O)c(C)c(C)c12 |
| 95 | C=CCC(C)(C)C(O)C(c1cccc(Cl)c1)n1ccnc1 (stereo unspecified) |
| 179 to 182 | Cc1ccn2ncc(C(=O)Nc3cc(Cl)ccc3OC3CCC(O)CC3)c2n1 (stereo unspecified) |
| > 270 | O=S(=O)(O)c1ccc(NCc2ccccc2F)cc1 |

| melting point [°C] | Structure (SMILES) |
| --- | --- |
| > 300 | O=C(O)c1ccc2oc3ccncc3c(=O)c2c1 |
| 208 to 209 | O=C(NCc1ccccn1)Nc1cc(-n2cc(-c3ccccc3)oc2=O)ccn1 |
| 162 | CCOC(=O)c1cn(C)nc1Nc1ccc(F)cc1[N+](=O)[O-] |
| 144 to 148 | Cc1c(CCC(=O)O)cccc1C(=O)c1ccc(Cl)cc1 |
| 276 to 281 | O=C1Nc2ccccc2C(c2ccccc2)N1C1CCN(CC2CC2)CC1 (stereo unspecified) |
| 75 to 77 | CC(C)(C)C(=O)Oc1ccc(NCC2CCc3ccccc3C2)cc1 (stereo unspecified) |
| 102 to 103 | CCOC(=O)CCc1cc(O)nn1CC(C)C |
| 224 to 226 | O=C1C(CSC(=O)c2ccccc2)=C(CSC(=O)c2ccccc2)C(=O)C(CSC(=O)c2ccccc2)=C1CSC(=O)c1ccccc1 |
| 178 to 179 | CCn1c(=O)n(OCc2ccccc2)c(=O)c2cc(F)c(N3CCN(C)CC3)nc21 |
| 160 to 162 | O=C(Cc1ccccc1)N[C@@H]1C(=O)N[C@@H]1SCC(=O)c1ccccc1 |
| 188 | COC(=O)c1c(OC)cc2oc(C)cc(=O)c2c1OC |
| 115 | O=C(OC1CCCCO1)C(c1ccccc1)(c1ccccc1)c1ccccc1 (stereo unspecified) |
| 156 to 158 | OC(Cc1ccc2ccccc2n1)C(Cl)(Cl)Cl (stereo unspecified) |
| 143 to 145 | O=C1c2ccccc2C(=O)N1CCN1CCC(c2noc3cc(F)ccc23)CC1 |
| 187 to 189 | O=C(O)c1ncc2[nH]c3ccccc3c2n1 |
| 216 to 217 | O=C(N[C@H](Cc1ccccc1C(F)(F)F)[C@@H](O)c1ccc(F)cc1)C1CCCCC1 (racemic) |
| 63 to 67 | CC(=O)SCCS(=O)(=O)N1CCC[C@H]1C(=O)O |
| 205 to 207 | Cc1nc(N2CCN(Cc3ccc(F)cc3)C2=O)sc1C(=O)NCc1ncccn1 |
| 172 to 173 | O=C(O)c1cccc(Oc2ccc([N+](=O)[O-])cc2Cl)c1 |
| 78 to 81 | Cc1c(OCC(F)(F)F)ccnc1CS(=O)c1nc2ccccc2n1S(=O)(=O)c1ccc(OCC(=O)Nc2ccccn2)cc1 (stereo unspecified) |
| 155 to 156 | CN(C)C=Nc1c(Cl)cc(N=Cc2ccc3c(c2)OCO3)cc1Cl |
| 101 to 103 | CCCc1nc2c(N)nc3cc(OCCOCCCl)ccc3c2s1 |
| 262 to 265 | Cc1cc(-n2cc(-c3ccc(F)cc3F)nc2C)cc2ccc(=O)[nH]c12 |

| melting point [°C] | Structure (SMILES) |
| --- | --- |
| 188 to 189 | CC(=O)N(C)c1ccccc1CS(=O)c1nccn1-c1ccccn1 (stereo unspecified) |
| 148 to 150 | COc1ncc(S(C)(=O)=O)cc1Br |
| 151 | Cc1cc(C#Cc2cn(-c3ccc(F)cc3)c(C)n2)ccn1 |
| 80 to 82 | Cc1ccc(S(=O)(=O)ON=C(CCN2C(=O)c3ccccc3C2=O)n2nc(C(C)(C)C)cc2N)cc1 |
| 175 to 177 | CC1(C)CON(Cc2ccc(Nc3cc4ccccc4c(=O)o3)cc2)C1=O |
| 191 to 193 | Cc1nc(C2CC2)nc(C)c1N1CCCn2c1nc1c(Cl)ccc(C(OC(F)F)C(F)(F)F)c12 (stereo unspecified) |
| 177 | O=C(NC[C@@H](C(=O)NO)N1CCCCC1)c1ccc(OCc2ccnc(-c3ccccc3)c2)cc1 |
| > 270 | CCn1c(=O)c2c(nc(/C=C/c3ccc(O)cc3)n2C)n(CC)c1=O |
| 99.4 to 99.9 | COC(CNC(=O)CN1C(=O)C(C)=C(C)C1=O)OC |
| 128 to 132 | Nc1cccc(SC2SCC(O)C(O)C2O)c1 (stereo unspecified) |
| > 250 | CCc1nnc2c(O)nc3cc(OC)ccc3n12 |
| 126 to 127 | OC1(C(F)(F)F)ON=C(c2ccc(Cl)cc2)C1Cl (stereo unspecified) |
| 155 to 156 | Oc1nc(Cc2ccc(F)cc2F)ncc1F |
| 154 | O=C(O)c1ccn2c1CSC2c1cccnc1 (single isomer, unassigned; (+)) |
| 120 to 122 | CC(C)c1cccc(C(C)C)c1NC(=O)NCCN1CCN(CCSc2nc3ccccc3[nH]2)CC1 |
| 99 to 101 | Cc1nc2nc(S(=O)(=O)Cl)nn2cc1Cl |
| > 250 | COc1ccc2c(c1)CCCC2(N)C(=O)O (stereo unspecified) |
| 94 to 95 | Cc1c(NC(=O)CC(C)(C)C)cc2c(c1C)O[C@@H](C)[C@H]2c1ccc(C(C)C)cc1 (relative stereo) |
| 162 | O=C(c1sc2c(ccc(=O)n2-c2ccccc2)c1Br)N1CC(OC2CCCCO2)C1 (stereo unspecified) |
| 227 | Cc1ccc(C(=O)NCc2ccncc2)cc1 |
| 183 to 184 | O=C(NC(=O)c1c(F)cccc1F)Nc1ccc2c(c1)C(F)(F)C(F)(F)O2 |
| 112 to 115 | CC1Cc2c(c(Cl)cc(Cl)c2-n2nc(C(C)(C)C)oc2=O)O1 (stereo unspecified) |
| 80 to 82 | COCC1(O)CCN(c2ccc(N3C[C@H](CNC(C)=O)OC3=O)cc2F)CC1 |

| Structure (SMILES) | melting point [°C] |
| --- | --- |
| CC1N=C(c2ccccc2)c2ccccc2NC1=O (stereo unspecified) | 160 to 162 |
| CC[C@@H]1N(c2ccc(C#N)c(C(F)(F)F)c2)C(=O)C[C@]1(C)O | 137 to 139 |
| N#Cc1ccc(N2C(=O)N(CCCC(=O)O)C3(CCOCC3)C2=O)cc1C(F)(F)F | 151 to 152 |
| O=C(Nc1ccccc1)O[C@@H]1CN2CCC1CC2 | 129 to 130 |
| CCCc1nnc2n1-c1ccc(Br)cc1C(c1ccccn1)=NC2 | 184 to 186 |
| Cc1cc(OC(=O)N(C)C)nc(C(Cl)(Cl)Cl)n1 | 83.5 to 84.5 |
| CN1C[C@H](CN2CCC(O)(c3ccc(Cl)cc3)CC2)C=C2c3cccc4[nH]c(Cl)c(c34)C[C@H]21 | > 192 |
| C1CC2CNCCNCCNCCNCC(C1)N2 | 90 to 90.5 |
| O=[N+]([O-])OCC#CCO | 107 to 110 |
